Assay results reported in patent publication EP1184374A1, “Carboxamide derivatives of pyrrolidine, piperidine and hexahydroazepine for the treatment of thrombosis disorders” (ORTHO PHARMACEUTICAL CORPORATION, priority 1996, dated 1997).
pIC50: −log10 of the molar value.

Legend:
platelet aggregation = conditions: L. Alig, J. Med. Chem. 1992, 35, 4393; read-out: IC50 against in vitro thrombin-induced platelet aggregation; cited from earlier work
GPIIb/IIIa = GPIIb/IIIa (Homo sapiens, UniProt P05106+P08514); assay: In vitro solid phase purified glycoprotein IIb/IIIa binding assay (biotinylated fibrinogen binding); conditions: read-out: Fibrinogen Binding % Inh. (50 µM)
Sequence of GPIIb/IIIa (P08514 32-887 limits assumed): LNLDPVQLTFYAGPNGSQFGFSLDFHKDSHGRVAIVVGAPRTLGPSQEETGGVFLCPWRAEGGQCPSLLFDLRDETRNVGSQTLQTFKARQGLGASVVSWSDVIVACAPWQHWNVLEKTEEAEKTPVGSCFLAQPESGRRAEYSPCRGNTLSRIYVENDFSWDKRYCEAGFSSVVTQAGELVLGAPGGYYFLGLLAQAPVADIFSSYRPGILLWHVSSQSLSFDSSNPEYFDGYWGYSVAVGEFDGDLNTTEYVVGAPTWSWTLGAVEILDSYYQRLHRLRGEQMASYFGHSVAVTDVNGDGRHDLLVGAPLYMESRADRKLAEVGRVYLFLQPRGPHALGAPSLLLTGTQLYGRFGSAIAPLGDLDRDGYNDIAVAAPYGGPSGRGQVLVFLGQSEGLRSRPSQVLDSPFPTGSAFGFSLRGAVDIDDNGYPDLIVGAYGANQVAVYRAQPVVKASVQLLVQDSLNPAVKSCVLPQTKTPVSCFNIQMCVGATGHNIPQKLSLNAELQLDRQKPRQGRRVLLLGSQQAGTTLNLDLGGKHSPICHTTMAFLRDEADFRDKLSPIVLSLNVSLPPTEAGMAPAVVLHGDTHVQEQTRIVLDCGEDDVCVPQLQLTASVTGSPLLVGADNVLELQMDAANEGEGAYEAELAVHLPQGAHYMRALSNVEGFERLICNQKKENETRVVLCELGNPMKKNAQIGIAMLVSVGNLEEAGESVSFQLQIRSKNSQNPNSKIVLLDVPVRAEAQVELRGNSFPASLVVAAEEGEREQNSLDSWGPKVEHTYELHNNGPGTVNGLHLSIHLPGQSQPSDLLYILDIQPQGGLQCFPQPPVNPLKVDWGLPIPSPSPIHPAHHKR
Sequence of GPIIb/IIIa (P08514 891-1039 partner limits assumed): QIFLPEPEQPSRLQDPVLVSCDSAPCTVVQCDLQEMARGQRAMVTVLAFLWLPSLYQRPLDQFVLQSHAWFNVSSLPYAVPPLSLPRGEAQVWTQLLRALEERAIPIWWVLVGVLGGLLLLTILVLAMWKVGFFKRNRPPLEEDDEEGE
Sequence of GPIIb/IIIa (P05106 27-788): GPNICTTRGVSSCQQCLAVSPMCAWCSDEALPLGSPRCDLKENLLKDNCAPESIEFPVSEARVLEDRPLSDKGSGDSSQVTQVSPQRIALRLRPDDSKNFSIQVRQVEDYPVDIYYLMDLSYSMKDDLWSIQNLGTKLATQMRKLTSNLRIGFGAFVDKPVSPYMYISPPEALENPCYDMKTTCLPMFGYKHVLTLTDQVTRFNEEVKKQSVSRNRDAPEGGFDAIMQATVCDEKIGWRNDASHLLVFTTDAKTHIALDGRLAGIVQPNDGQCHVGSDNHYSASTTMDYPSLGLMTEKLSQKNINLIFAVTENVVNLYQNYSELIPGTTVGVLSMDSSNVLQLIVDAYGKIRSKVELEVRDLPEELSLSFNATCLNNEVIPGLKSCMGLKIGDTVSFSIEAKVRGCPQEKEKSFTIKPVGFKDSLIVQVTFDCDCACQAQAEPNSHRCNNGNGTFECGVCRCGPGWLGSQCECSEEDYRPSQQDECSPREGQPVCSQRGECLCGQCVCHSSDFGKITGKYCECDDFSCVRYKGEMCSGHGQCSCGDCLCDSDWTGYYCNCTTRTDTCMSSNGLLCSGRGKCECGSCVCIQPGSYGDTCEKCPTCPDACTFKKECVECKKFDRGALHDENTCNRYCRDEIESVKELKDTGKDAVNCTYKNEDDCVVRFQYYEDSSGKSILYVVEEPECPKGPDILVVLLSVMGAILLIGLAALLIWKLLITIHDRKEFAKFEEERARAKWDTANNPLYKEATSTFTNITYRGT
Method: IN VITRO SOLID PHASE PURIFIED GLYCOPROTEIN IIB/IIIA BINDING ASSAY.
The plate is covered and incubated overnight at 4°C. The GPIIb/IIa solution is discarded and 150 µl of 5% BSA is added and incubated at RT for 1-3 h. The plate is washed extensively with modified Tyrodes buffer. Biotinylated fibrinogen (25 µl/well) at 2 x final concentration is added to the wells that contain the test compounds (25 µl/well). The plate is covered and incubated at RT for 2-4 h. Twenty minutes prior to incubation completion, one drop of Reagent A (Vecta Stain ABC Horse Radish Peroxidase kit, Vector Laboratories, Inc.) and one drop Reagent B are added with mixing to 5 mL modified Tyrodes buffer mix and let stand. The ligand solution is discarded and the plate washed (5 x 200 µl/well) with modified Tyrodes buffer. Vecta Stain HRP-Biotin-Avidin reagent (50 µl/well, as prepared above) is added and incubated at RT for 15 min. The Vecta Stain solution is discarded and the wells washed (5 x 200 µl/well) with modified Tyrodes buffer. Developing buffer (10 mL of 50 mM citrate/phosphate buffer @ pH 5.3, 6 mg o-phenylenediamine, 6 µl 30% H2O2; 50 µl/well) is added and incubated at RT for 3-5 min, and then 2N H2SO4 (50 µl/well) is added. The absorbance is read at 490 nm.

gel-filtered platelets = assay: In vitro inhibition of thrombin-induced gel-filtered platelet aggregation; format: cell-based; conditions: Homo sapiens
Method: IN VITRO INHIBITION OF THROMBIN-INDUCED GEL-FILTERED PLATELET AGGREGATION ASSAY.
The percentage of platelet aggregation is calculated as an increase in light transmission of compound-treated platelet concentrate vs. control-treated platelet concentrate. Human blood is obtained from drug free, normal donors into tubes containing 0.13M sodium citrate. Platelet rich plasma (PRP) is collected by centrifugation of whole blood at 200 x g for 10 min at 25°C. The PRP (5 mL) is gel filtered through Sepharose 2B (bed volume 50 mL), and the platelet count is adjusted to 2x10^7 platelets per sample. The following constituents are added to a siliconized cuvette: concentrated platelet filtrate and Tyrode's buffer (0.14M NaCl, 0.0027MKCl, 0.012M NaHCO3, 0.76 mM Na2HPO4, 0.0055M glucose, 2 mg/mL BSA and 5.0mM HEPES @ pH 7.4) in an amount equal to 350 µl, 50 µl of 20 mM calcium and 50 µl of the test compound. Aggregation is monitored in a BIODATA aggregometer for the 3 min following the addition of agonist (thrombin 50 µl of 1 unit/mL).

[1] = system: collagen- or ADP-induced ex vivo platelet aggregation; assay: Ex vivo dog study (platelet aggregation, hemodynamics, bleeding time, coagulation, cell counts); format: in vivo, dogs
Method: Adult mongrel dogs (8-13 kg) were anesthetized with sodium pentobarbital (35 mg/kg, i.v.) and artificially respired. Arterial blood pressure and heart rate were measured using a Millar catheter-tip pressure transducer inserted in a femoral artery. Another Millar transducer was placed in the left ventricle (LV) via a carotid artery to measure LV end diastolic pressure and indices of myocardial contractility. A lead II electrocardiogram was recorded from limb electrodes. Catheters were placed in a femoral artery and vein to sample blood and infuse drugs, respectively. Responses were continuously monitored using a Modular Instruments data aquisition system.
Arterial blood samples (5-9 ml) were withdrawn into tubes containing 3.8% sodium citrate to prepare platelet rich plasma (PRP) and to determine effects on coagulation parameters: prothrombin time (PT) and activated partial thromboplastin time (APTT). Separate blood samples (1.5 ml) were withdrawn in EDTA to determine hematocrit and cell counts (platelets, RBC's and white cells). Template bleeding times were obtained from the buccal surface using a symplate incision devise and Whatman filter paper.
Aggregation of PRP was performed using a BioData aggregometer. Aggregation of whole blood used a Chronolog impedance aggregometer. PT and APTT were determined on either a BioData or ACL 3000+ coagulation analyser. Cells were counted with a Sysmex K-1000.
Compounds were solubilized in a small volume of dimethylformamide (DMF) and diluted with saline to a final concentration of 10% DMF. Compounds were administered by the intravenous route with a Harvard infusion pump. Doses was administered over a 15 min interval at a constant rate of 0.33 ml/min. Data were obtained after each dose and in 30 min intervals following the end of drug administration. Oral doses were administered as aqueous solutions via syringe.

thrombus formation = assay: Canine arteriovenous shunt model of thrombosis; format: in vivo
Method: For instance, compound 16 inhibits thrombus formation at 10, 30, and 100 µg/kg/min cumulative doses by iv infusion (75%, 37%, 12% of thrombus weight vs. vehicle control, respectively). Compound 18 inhibits thrombus formation at 3, 10, and 30 µg/kg/min cumulative doses by iv infusion (82%, 41%, 12% of thrombus weight vs. vehicle control, respectively).

inhibition at 50 µM (GPIIb/IIIa) [%]	pIC50 (gel-filtered platelets)	SMILES	pIC50 (platelet aggregation)	inhibition at 50 µM (gel-filtered platelets; 50 µM, read-out: Platelet Aggregation % Inh. (50µM)) [%]	Duration of >50% inhibition of collagen- or ADP-induced ex vivo platelet aggregation ([1]; intravenous dosing 0.1 mpk) [min]	Duration of >50% inhibition of collagen- or ADP-induced ex vivo platelet aggregation ([1]; oral dosing 1 mpk) [min]	% of thrombus weight vs. vehicle control (thrombus formation; 3 µg/kg/min cumulative dose by iv infusion) [%]	% of thrombus weight vs. vehicle control (thrombus formation; 10 µg/kg/min cumulative dose by iv infusion) [%]	% of thrombus weight vs. vehicle control (thrombus formation; 30 µg/kg/min cumulative dose by iv infusion) [%]
–	–	CN(CC(=O)c1ccc(OCC(=O)O)c(OCC(=O)O)c1)C(=O)c1ccc(C(=N)N)cc1 [Ro-438857]	7.03	–	–	–	–	–	–
100	7.72	O=C(O)C[C@H](NC(=O)[C@@H]1CCCN(C(=O)CCC2CCNCC2)C1)c1cnc2ccccc2c1 [Compound 18, N-3-(4-Piperidinepropionyl)-R-(-)-nipecotyl-[(S)-3-amino-3-(3-quinolinyl)]propionic acid]	–	100	30	150	82	41	12
